In US20260102507A1, “CAMPTOTHECIN DERIVATIVE FOR TREATING OR PREVENTING CANCER AND ANTIBODY-DRUG CONJUGATE THEREOF” (CHENGDU BRILLIANT PHARMACEUTICAL CO., LTD., priority 2023, published 2026):

Legend:
Format in all cases: cell-based
[1] = system: human colon cancer cell line HCT116; assay: Cytotoxicity assay of camptothecin derivative toxins (Example A); conditions: 3 days incubation, Cell Titer Turbo 2.0 luminescent cell viability
Procedure: (§1) Tumor cells (human ovarian cancer cell line SK-OV-3; human colon cancer cell line HCT116; human lung adenocarcinoma cell line A549) in logarithmic growth phase were digested and adjusted to a density of approximately 3×10^4 cells/mL. The cells were plated on a white-walled 96-well plate at approximately 100 μL/well. The camptothecin derivative toxins of the Examples of the present application were serially diluted with the corresponding cell culture medium, and then mixed with the cells for incubation at 37° C. in a 5% CO2 incubator for 3 days. The growth inhibitory effect of the camptothecin derivative toxins on tumor cells was assessed by the Cell Titer Turbo 2.0 Luminescent Cell Viability Assay (Damas life, RA-GL11). Relative light unit (RLU) values were read from the cell culture plate using a microplate reader. Experimental data were analyzed using GraphPad Prism 8.0 software to calculate IC50 values. The above experiment was repeated using the following compounds as positive controls: […]

[2] = system: human lung adenocarcinoma cell line A549; assay: as above; conditions: 3 days incubation, Cell Titer Turbo 2.0 luminescent cell viability
Procedure: as §1

[3] = system: human ovarian cancer cell line SK-OV-3; assay: as above; conditions: for IC50: 3 days incubation, Cell Titer Turbo 2.0 luminescent cell viability; for tumor cell killing activity: in words, overall statement on Table 2 tumor cells, compared with SN-38 and Dxd
Procedure: as §1

[4] = system: human lung adenocarcinoma cell line NCI-H441; assay: Cytotoxicity assay of camptothecin derivative toxins (Example A'); conditions: Homo sapiens, NCI-H441, 72 h; Example A'; 3 days incubation; read-out: IC50 (nM) NCI-H441
Procedure: (§2) The camptothecin derivatives of the Examples of the present application were serially diluted with DMSO and the corresponding cell culture medium, and were added into a white-walled 96-well plate. Tumor cells (human ovarian cancer cell line SK-OV-3; human colon cancer cell line HCT116; human lung adenocarcinoma cell line A549; human lung adenocarcinoma cell line NCI-H441; human oral epidermoid carcinoma cell line KB) in logarithmic growth phase were digested and adjusted to a density of approximately 3.33×10^4 cells/mL. The cells were plated at 90 µL/well on the white-walled 96-well plate that was pre-loaded with the samples, followed by incubation at 37° C. in a 5% CO2 incubator for 3 days. The growth inhibitory effect of the small molecule compounds on tumor cells was evaluated by the Cell Titer Turbo 2.0 Luminescent Cell Viability Assay (Damas life, RA-GL11). Relative light unit (RLU) values were read from the cell culture plates using a microplate reader. Experimental data were analyzed with GraphPad Prism 8.0 software to calculate IC50 values.

[5] = system: human ovarian cancer cell line SK-OV-3; assay: as above; conditions: Homo sapiens, SK-OV-3, 72 h; Example A'; 3 days incubation; read-out: IC50 (nM) SK-OV-3
Procedure: as §2

Row | SMILES | IC50 ([1]; Homo sapiens, HCT-116, 72 h) | IC50 ([2]; Homo sapiens, A549, 72 h) | IC50 ([3]; Homo sapiens, SK-OV-3, 72 h) | tumor cell killing activity [3] | other results
1 | CC[C@@]1(O)C(=O)OCc2c1cc1n(c2=O)Cc2c-1nc1cc(F)c(C)c3c1c2[C@@H](NC(=O)CO)CC3 [DXD, Dxd, reference compound] |  |  |  |  | IC50 [1]: 49.3 nM; IC50 [2]: 413 nM; IC50 [3]: 41.4 nM
2 | CCc1c2c(nc3ccc(O)cc13)-c1cc3c(c(=O)n1C2)COC(=O)[C@]3(O)CC [SN-38, reference compound] | 60.5 nM | 523 nM | 30.9 nM |  | 
3 | CC[C@@]1(O)C(=O)OCc2c1cc1n(c2=O)Cc2c-1nc1cc(F)c(C)cc1c2CNCC1CCCC1 [STI-A2, (S)-4-ethyl-4-hydroxy-8-fluoro-9-methyl-11-(((cyclopentylmethyl)amino)methyl)-1,12-dihydro-14H-pyrano[3′,4′:6,7]indolizino[1,2-b]quinoline-3,14(4H)-dione] | 52.5 nM | 107 nM | 30.8 nM | comparable to that of SN-38 and Dxd | 
4 | CC[C@@]1(O)C(=O)OCc2c1cc1n(c2=O)Cc2c-1nc1cc(F)c(C)cc1c2CNCC(C)(C)C [STI-A, (S)-4-ethyl-4-hydroxy-8-fluoro-9-methyl-11-((neopentylamino)methyl)-1,12-dihydro-14H-pyrano[3′,4′:6,7]indolizino[1,2-b]quinoline-3,14(4H)-dione] | 39.9 nM | 115 nM | 29.3 nM | comparable to that of SN-38 and Dxd | 
5 | CC[C@@]1(O)C(=O)OCc2c1cc1n(c2=O)Cc2c-1nc1cc(F)c(C)cc1c2CCl [STI-A-4, (S)-4-ethyl-4-hydroxy-8-fluoro-9-methyl-11-(chloromethyl)-1,12-dihydro-14H-pyrano[3′,4′:6,7]indolizino[1,2-b]quinoline-3,14(4H)-dione] | 222 nM | 757 nM | 71.8 nM |  | 
6 | CC[C@@]1(O)C(=O)OCc2c1cc1n(c2=O)Cc2c-1nc1cc3c(cc1c2CCCCO)OCO3 [STI-E, (S)-7-ethyl-7-hydroxy-14-(4-hydroxybutyl)-10,13-dihydro-11H-[1,3]dioxolo[4,5-g]pyrano[3′,4′:6,7]indolizino[1,2-b]quinoline-8,11(7H)-dione] | 1740 nM | 1060 nM | 403 nM |  | 
7 | CC[C@@]1(O)C(=O)OCc2c1cc1n(c2=O)Cc2cc3cc4c(cc3nc2-1)OCO4 [STI-E-05, (S)-7-ethyl-7-hydroxy-10,13-dihydro-11H-[1,3]dioxolo[4,5-g]pyrano[3′,4′:6,7]indolizino[1,2-b]quinoline-8,11(7H)-dione] | 32.9 nM | 70.3 nM | 12.7 nM | comparable to that of SN-38 and Dxd | 
8 | CC[C@@]1(O)C(=O)OCc2c1cc1n(c2=O)Cc2c-1nc1cc(F)c(C)cc1c2NC(=O)CO [STI-F2, (S)—N-(4-ethyl-4-hydroxy-8-fluoro-9-methyl-3,14-dioxo-3,4,12,14-tetrahydro-1H-pyrano[3′,4′:6,7]indolizino[1,2-b]quinolin-11-yl)-2-hydroxyacetamide] | 945 nM | 2370 nM | 317 nM |  | 
9 | CC[C@@]1(O)C(=O)OCc2c1cc1n(c2=O)Cc2c-1nc1cc(F)c(C)cc1c2NCCCCO [STI-F6, (S)-4-ethyl-8-fluoro-4-hydroxy-9-methyl-11-((4-hydroxybutyl)amino)-1,12-dihydro-14H-pyrano[3′,4′:6,7]indolizino[1,2-b]quinoline-3,14(4H)-dione] |  |  | 2.65 nM | significantly superior to that of SN-38 and Dxd | 
10 | CC[C@@]1(O)C(=O)OCc2c1cc1n(c2=O)Cc2c-1nc1cc(F)c(C)cc1c2NCCCCN [STI-F7, (S)-11-((4-aminobutyl)amino)-4-ethyl-8-fluoro-4-hydroxy-9-methyl-1,12-dihydro-14H-pyrano[3′,4′:6,7]indolizino[1,2-b]quinoline-3,14(4H)-dione] |  |  | 285 nM |  | 
11 | CCCCCNc1c2c(nc3cc(F)c(C)cc13)-c1cc3c(c(=O)n1C2)COC(=O)[C@]3(O)CC [STI-F13, (S)-4-ethyl-8-fluoro-4-hydroxy-9-methyl-11-(pentylamino)-1,12-dihydro-14H-pyrano[3′,4′:6,7]indolizino[1,2-b]quinoline-3,14(4H)-dione] |  |  | 2.37 nM |  | 
12 | CC[C@@]1(O)C(=O)OCc2c1cc1n(c2=O)Cc2c-1nc1cc(F)c(C)cc1c2NC(=O)C(O)C1CC1 (stereo partly drawn) [STI-F, 2-cyclopropyl-N—((S)-4-ethyl-8-fluoro-4-hydroxy-9-methyl-3,14-dioxo-3,4,12,14-tetrahydro-1H-pyrano[3′,4′:6,7]indolizino[1,2-b]quinolin-11-yl)-2-hydroxyacetamide] |  |  | 45.5 nM | comparable to that of SN-38 and Dxd | 
13 | CC[C@@]1(O)C(=O)OCc2c1cc1n(c2=O)Cc2c-1nc1cc(F)c(C)cc1c2C(=O)O [STI-F-01, (S)-4-ethyl-8-fluoro-4-hydroxy-9-methyl-3,14-dioxo-3,4,12,14-tetrahydro-1H-pyrano[3′,4′:6,7]indolizino[1,2-b]quinoline-11-carboxylic acid] | 322 nM | 1050 nM | 131 nM |  | 
14 | CC[C@@]1(O)C(=O)OCc2c1cc1n(c2=O)Cc2c-1nc1cc(F)c(C)cc1c2N [STI-F-03C-1, (S)-4-ethyl-4-hydroxy-8-fluoro-9-methyl-11-amino-1,12-dihydro-14H-pyrano[3′,4′:6,7]indolizino[1,2-b]quinoline-3,14(4H)-dione] | 38.2 nM | 1080 nM | 19.9 nM | comparable to that of SN-38 and Dxd | 
15 | CC[C@@]1(O)C(=O)OCc2c1cc1n(c2=O)Cc2cc3cc(C)c(F)cc3nc2-1 [STI-F-8, (S)-4-ethyl-4-hydroxy-8-fluoro-9-methyl-1,12-dihydro-14H-pyrano[3′,4′:6,7]indolizino[1,2-b]quinoline-3,14(4H)-dione] | 26.6 nM | 52.8 nM | 12.4 nM | comparable to that of SN-38 and Dxd | 
16 | CCCCCNc1c2c(nc3cc(F)c(C)cc13)-c1cc3c(c(=O)n1C2)COC(=O)[C@]3(O)CC [STI-F-13] |  |  |  | significantly superior to that of SN-38 and Dxd | 
17 | CCCCCc1c2c(nc3cc(F)c(N)cc13)-c1cc3c(c(=O)n1C2)COC(=O)[C@]3(O)CC [STI-G1, (S)-4-ethyl-4-hydroxy-8-fluoro-9-amino-11-pentyl-1,12-dihydro-14H-pyrano[3′,4′:6,7]indolizino[1,2-b]quinoline-3,14(4H)-dione] | 11 nM | 9.52 nM | 3.7 nM | significantly superior to that of SN-38 and Dxd | 
18 | CCCSCc1c2c(nc3cc(F)c(N)cc13)-c1cc3c(c(=O)n1C2)COC(=O)[C@]3(O)CC [STI-G2, (S)-9-amino-4-ethyl-8-fluoro-4-hydroxy-11-((propylthio)methyl)-1,12-dihydro-14H-pyrano[3′,4′:6,7]indolizino[1,2-b]quinoline-3,14(4H)-dione] | 11 nM | 14.9 nM | 2.19 nM | significantly superior to that of SN-38 and Dxd | 
19 | CCCSCc1c2c(nc3cc(F)c(Br)cc13)-c1cc3c(c(=O)n1C2)COC(=O)[C@]3(O)CC [STI-G2-06C, (S)-9-bromo-4-ethyl-8-fluoro-4-hydroxy-11-((propylthio)methyl)-1,12-dihydro-14H-pyrano[3′,4′:6,7]indolizino[1,2-b]quinoline-3,14(4H)-dione] | 81.3 nM | 216 nM | 57.8 nM | comparable to that of SN-38 and Dxd | 
20 | CCCCCc1c2c(nc3cc(F)c([N+](=O)[O-])cc13)-c1cc3c(c(=O)n1C2)COC(=O)[C@]3(O)CC [STI-G03, (S)-4-ethyl-4-hydroxy-8-fluoro-9-nitro-11-pentyl-1,12-dihydro-14H-pyrano[3′,4′:6,7]indolizino[1,2-b]quinoline-3,14(4H)-dione] | 268 nM | 322 nM | 137 nM |  | 
21 | CCCCCc1c2c(nc3cc(F)c(NC(=O)CO)cc13)-c1cc3c(c(=O)n1C2)COC(=O)[C@]3(O)CC [STI-G5, (S)—N-(4-ethyl-8-fluoro-4-hydroxy-3,14-dioxo-11-pentyl-3,4,12,14-tetrahydro-1H-pyrano[3′,4′:6,7]indolizino[1,2-b]quinolin-9-yl)-2-hydroxyacetamide] |  |  |  |  | IC50 [4]: 2.22 nM; IC50 [5]: 10.3 nM
